Results taken from patent US12410163B2, “Compounds as GLP-IR agonists” (Terns Pharmaceuticals, Inc., priority 2022, dated 2025).

Test: Passive permeability and efflux ratio (Caco-2)
Format: in vitro ADME
Conditions: human; for efflux ratio at 120 min, 5 μM: pH 7.4, Caco-2, efflux ratio = Papp (B-to-A)/Papp (A-to-B), read-out: ER; for Papp A→B at 120 min, 5 μM: Caco-2, 5 μM, pH 7.4, 120 minutes
Experimental: Caco-2 cells (clone C2BBe1) are obtained, e.g., from American Type Culture Collection (Manassas, VA). Cell monolayers are grown to confluence on collagen-coated, microporous membranes in 12-well assay plates. The permeability assay buffer is Hanks' balanced salt solution containing 10 mM HEPES and 15 mM glucose at a pH of 7.4. The buffer in the receiver chamber also contains 1% bovine serum albumin. The dosing solution concentration is 5 μM of test article in the assay buffer. Cell monolayers are dosed on the apical side (A-to-B) or basolateral side (B-to-A) and incubated at 37° C. with 5% CO2 in a humidified incubator. Samples are taken from the donor and receiver chambers at 120 minutes. Each determination is performed in duplicate. The flux of lucifer yellow is also measured post-experimentally for each monolayer to ensure no damage is inflicted to the cell monolayers during the flux period. All samples are assayed by LC-MS/MS using electrospray ionization. The apparent permeability (Papp) and percent recovery were calculated as follows: Papp=(dCr/dt)×Vr/(A×CA) (1) Percent Recovery=100×((Vr×Cr^final)+(Vd×Cd^final))/(Vd×CN) (2), where, dCr/dt is the slope of the cumulative receiver concentration versus time in μM s^−1; Vr is the volume of the receiver compartment in cm^3; Vd is the volume of the donor compartment in cm^3; A is the area of the insert (1.13 cm^2 for 12-well); CA is the average of the nominal dosing concentration and the measured 120-minute donor concentration in μM; CN is the nominal concentration of the dosing solution in μM; Cr^final is the cumulative receiver concentration in μM at the end of the incubation period; Cd^final is the concentration of the donor in μM at the end of the incubation period. Efflux ratio (ER) is defined as Papp (B-to-A)/Papp (A-to-B). Rat Pharmacokinetics
Caco-2 cells (clone C2BBe1) were obtained from American Type Culture Collection (Manassas, VA). Cell monolayers were grown to confluence on collagen-coated, microporous membranes in 12-well assay plates. Details of the plates and their certification are shown below. The permeability assay buffer was Hanks' balanced salt solution containing 10 mM HEPES and 15 mM glucose at a pH of 7.4. The buffer in the receiver chamber also contained 1% bovine serum albumin. The dosing solution concentration was 5 μM of test article in the assay buffer. Cell monolayers were dosed on the apical side (A-to-B) or basolateral side (B-to-A) and incubated at 37° C. with 5% CO2 in a humidified incubator. Samples were taken from the donor and receiver chambers at 120 minutes. Each determination was performed in duplicate. The flux of lucifer yellow was also measured post-experimentally for each monolayer to ensure no damage was inflicted to the cell monolayers during the flux period. All samples were assayed by LC-MS/MS using electrospray ionization. The apparent permeability (Papp) and percent recovery were calculated as follows: Papp=(dCr/dt)×Vr/(A×CA) (1) Percent Recovery=100×((Vr×Cr^final)+(Vd×Cd^final))/(Vd×CN) (2), where, dCr/dt is the slope of the cumulative receiver concentration versus time in μM s^−1; Vr is the volume of the receiver compartment in cm^3; Vd is the volume of the donor compartment in cm^3; A is the area of the insert (1.13 cm^2 for 12-well); CA is the average of the nominal dosing concentration and the measured 120-minute donor concentration in μM; CN is the nominal concentration of the dosing solution in μM; Cr^final is the cumulative receiver concentration in μM at the end of the incubation period; Cd^final is the concentration of the donor in μM at the end of the incubation period. Efflux ratio (ER) is defined as Papp (B-to-A)/Papp (A-to-B).

Row | efflux ratio at 120 min, 5 μM | Papp A→B at 120 min, 5 μM | SMILES
1 | 2.51 | 15 ×10⁻⁶ cm/s | N#Cc1ccc(COc2cccc(N3CCN(Cc4nc5ccc(C(=O)O)cc5n4Cc4cncs4)[C@@H]4C[C@@H]43)n2)c(F)c1 (single isomer, unassigned) [Compound 1, 2-((5-(6-((4-cyano-2-fluorobenzyl)oxy)pyridin-2-yl)-2,5-diazabicyclo[4.1.0]heptan-2-yl)methyl)-1-(thiazol-5-ylmethyl)-1H-benzo[d]imidazole-6-carboxylic Acid]
2 | 1.71 | 27.9 ×10⁻⁶ cm/s | N#Cc1ccc(COc2cccc([C@@H]3CCN(Cc4nc5ccc(C(=O)O)cc5n4Cc4cncs4)[C@@H]4C[C@@H]43)n2)c(F)c1 (single isomer, unassigned) [Compound 5, 2-((5-(6-((4-Cyano-2-fluorobenzyl)oxy)pyridin-2-yl)-2-azabicyclo[4.1.0]heptan-2-yl)methyl)-1-(thiazol-5-ylmethyl)-1H-benzo[d]imidazole-6-carboxylic Acid]
3 | 1.31 | 16.8 ×10⁻⁶ cm/s | CC1(c2ccc(C#N)cc2F)Oc2cccc(C3CCN(Cc4nc5ccc(C(=O)O)cc5n4Cc4cncs4)CC3)c2O1 (centres unmarked) [Compound 18]
4 | 2.27 | 17.5 ×10⁻⁶ cm/s | CC1(c2ccc(C#N)cc2F)Oc2cccc(N3CCN(Cc4nc5ccc(C(=O)O)cc5n4CC4(C#N)CC4)C4CC43)c2O1 (centres unmarked) [Compound 40, 2-((5-(2-(4-Cyano-2-fluorophenyl)-2-methylbenzo[d][1,3]dioxol-4-yl)-2,5-diazabicyclo[4.1.0]heptan-2-yl)methyl)-1-((1-cyanocyclopropyl)methyl)-1H-benzo[d]imidazole-6-carboxylic Acid]
